Test results published in ChEMBL document CHEMBL4184182, “Studies on interactions of carbazole derivatives with DNA, cell image, and cytotoxicity” (Bioorg Med Chem, 2018).
Active and inactive are the calls of the source. The calls are words filed in the database; no cut-off is given here.

Assays:
[1] = system: Calf thymus DNA; test: Binding affinity to calf thymus DNA assessed as hyperchromicity at 15 uM after 5 mins by UV-Visible absorbance titration method; type: nucleic-acid assay; details: Bos taurus
[2] = system: Quadruplex DNA; test: Binding affinity to Bcl2 G-quadruplex DNA (unknown origin) assessed as hyperchromicity at 15 uM after 5 mins by UV-Visible absorbance titration method; type: nucleic-acid assay
[3] = system: Quadruplex DNA; test: Binding affinity to c-Myc G-quadruplex DNA (unknown origin) assessed as hyperchromicity at 15 uM after 5 mins by UV-Visible absorbance titration method; type: nucleic-acid assay
[4] = system: Quadruplex DNA; test: Binding affinity to human telomeric G-quadruplex DNA assessed as hyperchromicity at 15 uM after 5 mins in presence of potassium ion by UV-Visible absorbance titration method; type: nucleic-acid assay
[5] = system: dsDNA; test: Binding affinity to 26-mer duplex DNA (unknown origin) assessed as red shift at 15 uM after 5 mins by UV-Visible absorbance titration method; type: nucleic-acid assay
[6] = system: Quadruplex DNA; test: Binding affinity to c-Kit G-quadruplex DNA (unknown origin) assessed as red shift at 15 uM after 5 mins by UV-Visible absorbance titration method; type: nucleic-acid assay
[7] = system: Calf thymus DNA; test: Binding affinity to calf thymus DNA assessed as absorption maximum at 5 uM after 5 mins by fluorescence titration method (reference value: 405 nanometer); type: nucleic-acid assay; details: Bos taurus
[8] = system: dsDNA; test: Binding affinity to 26-mer duplex DNA (unknown origin) assessed as absorption maximum at 5 uM after 5 mins by fluorescence titration method (reference value: 405 nanometer); type: nucleic-acid assay
[9] = system: Quadruplex DNA; test: Binding affinity to c-Myc G-quadruplex DNA (unknown origin) assessed as absorption maximum at 5 uM after 5 mins by fluorescence titration method (reference value: 405 nanometer); type: nucleic-acid assay
[10] = system: Quadruplex DNA; test: Binding affinity to human telomeric G-quadruplex DNA assessed as absorption maximum at 5 uM after 5 mins in presence of potassium ion by fluorescence titration method (reference value: 405 nanometer); type: nucleic-acid assay
[11] = system: Quadruplex DNA; test: Binding affinity to human telomeric G-quadruplex DNA assessed as absorption maximum at 5 uM after 5 mins in presence of sodium ion by fluorescence titration method (reference value: 405 nanometer); type: nucleic-acid assay
[12] = system: dsDNA; test: Binding affinity to 26-mer duplex DNA (unknown origin) assessed as emission maximum at 5 uM after 5 mins by fluorescence titration method (reference value: 559 nanometer); type: nucleic-acid assay
[13] = system: dsDNA; test: Binding affinity to 26-mer duplex DNA (unknown origin) assessed as compound fluorescence life time at 5 uM after 5 mins by fluorescence titration method (reference value: 3.626 nanoseconds); type: nucleic-acid assay
[14] = system: Quadruplex DNA; test: Binding affinity to c-Kit G-quadruplex DNA (unknown origin) assessed as compound fluorescence life time at 5 uM after 5 mins by fluorescence titration method (reference value: 3.626 nanoseconds); type: nucleic-acid assay
[15] = system: Quadruplex DNA; test: Binding affinity to c-Kit G-quadruplex DNA (unknown origin) assessed as enhanced fluorescence time at 5 uM after 5 mins by fluorescence titration assay relative to control; type: nucleic-acid assay
[16] = system: Quadruplex DNA; test: Binding affinity to c-Myc G-quadruplex DNA (unknown origin) assessed as enhanced fluorescence time at 5 uM after 5 mins by fluorescence titration assay relative to control; type: nucleic-acid assay
[17] = system: Quadruplex DNA; test: Binding affinity to c-Kit G-quadruplex DNA (unknown origin) assessed as enhanced fluorescence ratio at 5 uM after 5 mins by fluorescence titration assay relative to control; type: nucleic-acid assay
[18] = system: Quadruplex DNA; test: Binding affinity to human telomeric G-quadruplex DNA assessed as enhanced fluorescence ratio at 5 uM after 5 mins in presence of sodium ion by fluorescence titration assay relative to control; type: nucleic-acid assay
[19] = system: dsDNA; test: Binding affinity to 26-mer duplex DNA (unknown origin) assessed as enhanced fluorescence ratio at 5 uM after 5 mins in presence of sodium ion by fluorescence titration assay relative to control; type: nucleic-acid assay
[20] = system: HepG2; test: Induction of morphological changes in human HepG2 cells assessed as debris formation at 10 uM after 24 hrs; type: functional, cell-based
[21] = Drug uptake in human HepG2 cell cytoplasm at 10 uM after 2.5 hrs by confocal microscopic method; type: ADME, subcellular; details: hepg2, 2.5 h
[22] = Drug uptake in human HepG2 cell nucleus at 10 uM after 2.5 hrs by confocal microscopic method; type: ADME, subcellular; details: hepg2, 2.5 h
[23] = Drug uptake in DNase-1 treated human HepG2 cell nucleus at 10 uM after 2.5 hrs by confocal microscopic method; type: ADME, subcellular; details: hepg2, 2.5 h
[24] = Drug uptake in RNase-A treated human HepG2 cell nucleus at 10 uM after 2.5 hrs by confocal microscopic method; type: ADME, subcellular; details: hepg2, 2.5 h
[25] = system: Quadruplex DNA; test: Binding affinity to c-Kit G-quadruplex DNA (unknown origin) assessed as hyperchromicity at 10 uM after 5 mins by UV-Visible absorbance titration method; type: nucleic-acid assay
[26] = system: Quadruplex DNA; test: Binding affinity to c-Myc G-quadruplex DNA (unknown origin) assessed as hyperchromicity at 10 uM after 5 mins by UV-Visible absorbance titration method; type: nucleic-acid assay
[27] = system: Quadruplex DNA; test: Binding affinity to human telomeric G-quadruplex DNA assessed as hyperchromicity at 10 uM after 5 mins in presence of potassium ion by UV-Visible absorbance titration method; type: nucleic-acid assay
[28] = system: Quadruplex DNA; test: Binding affinity to human telomeric G-quadruplex DNA assessed as hyperchromicity at 10 uM after 5 mins in presence of sodium ion by UV-Visible absorbance titration method; type: nucleic-acid assay
[29] = system: dsDNA; test: Binding affinity to 26-mer duplex DNA (unknown origin) assessed as red shift at 10 uM after 5 mins by UV-Visible absorbance titration method; type: nucleic-acid assay
[30] = system: Quadruplex DNA; test: Binding affinity to human telomeric G-quadruplex DNA assessed as red shift at 10 uM after 5 mins in presence of potassium ion by UV-Visible absorbance titration method; type: nucleic-acid assay
[31] = system: Quadruplex DNA; test: Binding affinity to human telomeric G-quadruplex DNA assessed as red shift at 10 uM after 5 mins in presence of sodium ion by UV-Visible absorbance titration method; type: nucleic-acid assay
[32] = system: Calf thymus DNA; test: Binding affinity to calf thymus DNA assessed as absorption maximum at 5 uM after 5 mins by fluorescence titration method (reference value: 453 nanometer); type: nucleic-acid assay; details: Bos taurus
[33] = system: dsDNA; test: Binding affinity to 26-mer duplex DNA (unknown origin) assessed as absorption maximum at 5 uM after 5 mins by fluorescence titration method (reference value: 453 nanometer); type: nucleic-acid assay
[34] = system: Quadruplex DNA; test: Binding affinity to Bcl2 G-quadruplex DNA (unknown origin) assessed as absorption maximum at 5 uM after 5 mins by fluorescence titration method (reference value: 453 nanometer); type: nucleic-acid assay
[35] = system: Quadruplex DNA; test: Binding affinity to c-Myc G-quadruplex DNA (unknown origin) assessed as absorption maximum at 5 uM after 5 mins by fluorescence titration method (reference value: 453 nanometer); type: nucleic-acid assay
[36] = system: Quadruplex DNA; test: Binding affinity to c-Myc G-quadruplex DNA (unknown origin) assessed as emission maximum at 5 uM after 5 mins by fluorescence titration method (reference value: 584 nanometer); type: nucleic-acid assay
[37] = system: Quadruplex DNA; test: Binding affinity to Bcl2 G-quadruplex DNA (unknown origin) assessed as compound fluorescence life time at 5 uM after 5 mins by fluorescence titration method (reference value: 0.192 nanoseconds); type: nucleic-acid assay
[38] = system: HepG2; test: Induction of morphological changes in human HepG2 cells assessed as cellular clumping at 5 uM after 24 hrs; type: functional, cell-based
[39] = Drug uptake in human HepG2 cell nucleus at 3 uM after 30 mins by H33258.staining based confocal microscopic method; type: ADME, subcellular; details: hepg2, 0.5 h
[40] = Drug uptake in RNase-A treated human HepG2 cell nucleus at 3 uM after 30 mins by H33258.staining based confocal microscopic method; type: ADME, subcellular; details: hepg2, 0.5 h

CCn1c2ccccc2c2cc(/C=C(\C#N)c3ccc[n+](C)c3)ccc21.[I-]
Activity [1]: 39.4%
Activity [2]: 42.7%
Activity [3]: 41.7%
Activity [4]: 41.2%
Activity [5]: 17 nm
Activity [6]: 27 nm
Activity [7]: 428 nm
Activity [8]: 422 nm
Activity [9]: 430 nm
Activity [10]: 428 nm
Activity [11]: 422 nm
Activity [12]: 541 nm
Time [13]: 2.43 nanoseconds
Time [14]: 7.04 nanoseconds
fold change (FC) [15]: 11.2 to 20.6
fold change (FC) [16]: 11.2 to 20.6
Ratio [17]: > 6
Ratio [18]: > 6
Ratio [19]: > 6
Activity [20]: Active
Drug uptake [21]: Active
Drug uptake [22]: Not Active
Drug uptake [23]: Not Active
Drug uptake [24]: Active

CCn1c2ccccc2c2cc(/C=C/c3sc4ccccc4[n+]3CC)ccc21.[I-]
Activity [25]: 55.1%
Activity [26]: 55.6%
Activity [27]: 41.1%
Activity [28]: 48.4%
Activity [29]: 17 nm
Activity [30]: 21 nm
Activity [31]: 24 nm
Activity [32]: 477 nm
Activity [33]: 470 nm
Activity [34]: 500 nm
Activity [35]: 506 nm
Activity [36]: 581 nm
Time [37]: 2.17 nanoseconds
Activity [38]: Active
Drug uptake [39]: Active
Drug uptake [40]: Active
